The values below are quoted from earlier work in patent US6365170B1, “Use of a disinfectant for living fish” (USF Filtration & Separations Spa-Div. Perdomini, priority 1998, dated 2002).

The subject of this series is salmon louse (Lepeophtheirus Salmonis). Conditions: hydrogen peroxide around 1.5 g/l for longer than 20 minutes.

As to `OO` [hydrogen peroxide], the success percentage was roughly 100%.
